The values that follow come from US20090042978A1, “Pharmaceutical Compositions Containing Nitrovinylfuran Derivatives for the Treatment of Leishmaniosis and Trypanosomosis” (CENTRO DE BIOACTIVOS QUIMICOS, priority 2005, published 2009).

In brackets after ≈: the same amount, converted by molar mass. Several values for one entry are separate records, joined by “and”; a condition that tells them apart may be missing. Equal values may be shown once. Read-outs that look alike come from different tables or passages of the source.

The subject of series [1] is L. mexicana amazonensis promastigotes. Nature of the series: In vitro activity against Leishmania promastigotes (amazonensis). The series is classed as cell-based. Set-up: CP100: unit not given here. How it is done: (§1) Mean inhibitory concentrations (Cl50%) against L. mexicana amazonensis, L. donovani infantum and L. braziliensis braziliensis promastigotes were determined according to the method described by Bodley A L et al (J Infect Dis 1995; 172(4):1157-9.). Minimal parasiticidal concentrations (CP100, minimal concentrations capable of abolishing the motility of all parasites in the culture) were also determined. Amphotericin B and Glucantime® were tested as reference drugs.

Series [2] deals with L. braziliensis braziliensis promastigotes. Nature of the series: In vitro activity against Leishmania promastigotes (braziliensis). Set-up: CP100: unit not given here. Type of series: cell-based. How it is done:
as §1

The subject of series [3] is L. donovani infantum promastigotes. Nature of the series: In vitro activity against Leishmania promastigotes (infantum). Also noted: CP100: unit not given here. Type of series: cell-based. As for the experimental part: as §1
Series [4] relates to trypomastigotes of T. cruzi. Nature of the series: In vitro activity against Trypanosoma cruzi. The series is classed as cell-based. As for the experimental part: The in vitro activity of the β-nitrovinylfuran derivatives was tested against trypomastigotes of T. cruzi grown in a rat myoblast cell line. Minimal parasiticidal concentrations (minimal concentration that immobilizes all the parasites in the culture) and mean inhibitory concentrations (concentration that reduces the number of parasites to 50% of those found in the un-treated control cultures) were determined according to Buckner's method (Antimicrob Agents Chemother 1996; 40(11):2592-7).

The nature of series [5]: Toxicological studies (LD50, LD0, MTD), intraperitoneal. Type of series: in vivo, female Balb/c mice. The conditions noted are these: for MTD at 14 days: female, Balb/c. How it is done: The same animal model used for in vivo anti-leishmanial tests was used to perform comparative toxicological studies of the β-nitrovinylfuran derivatives. The main excipient of the compositions used with this purpose was the sunflower oil. The mean lethal doses (LD50) of each β-nitrovinylfuran derivative and Amphotericin B were estimated in female Balb/c mice (18-20g body weight), treated by a single intraperitoneal injection. The maximal non-lethal doses (LD0) were calculated from the dose-mortality curves. The maximal tolerated doses (MTD, maximal dose causing neither mortality nor body weight losses over 10% respect to the initial weight) by repeated intraperitoneal administration every 12 or 24 h during 14 days were determined as well.

Series [6] deals with L. m. amazonensis. Nature of the series: Experimental cutaneous leishmaniosis, early stage lesions treated every 24 h. Type of series: in vivo, Balb/c mice. As to conditions: D 5 mg/Kg. As for the experimental part:
(§2) Balb/c mice were experimentally infected with L. m. amazonensis promastigotes by intradermal injection in the footpads and six weeks later they were treated with the test compounds by intraperitoneal route. The product 2-bromo-5-(2-bromo-2-nitrovinyl)-furan was administered at a dose of 5 mg/Kg; the 2-bromo-5-(2-methyl-2-nitrovinyl)-furan, at 50 mg/Kg and Amphotericin B, at 1 mg/Kg. Animals were daily dosed for 14 days. Miglyol 810, the vehicle used for the β-nitrovinylfuran derivatives, was similarly administered to a group of mice.

In series [7] the test system is L. m. amazonensis. Nature of the series: Experimental cutaneous leishmaniosis, early stage lesions treated every 12 h. The series is classed as in vivo, Balb/c mice. How it is done:
as §2
The experiment was essentially carried out in a similar way as the one described above. However, 2-bromo-5-(2-bromo-2-nitrovinyl,-furan was administered at a dose of 2 mg/Kg and 2-bromo-5-(2-methyl-2-nitrovinyl)-furan at 100 mg/Kg. Treatments were administered by intraperitoneal route, but every 12 h instead of 24 h.

Series [8] has as its system L. m. amazonensis. Nature of the series: Experimental cutaneous leishmaniosis, chronic lesions treated every 12 h. The series is classed as in vivo, Balb/c mice. How it is done:
Mice developed chronic leishmanial lesions at eighteen weeks post-infection. Lesions were ulcerated and covered with a thick crust. The average dorso-plantar diameter of the infected foot was 1.23±0.24 cm and the lateral diameter was 1.24±0.19 cm. At that stage the treatment started twice a day with either 2-bromo-5-(2-bromo-2-nitrovinyl)-furan at 2 mg/Kg; 2-bromo-5-(2-methyl-2-nitrovinyl)-furan at 50 mg/Kg or Amphotericin B at 5 mg/Kg every other day. A control group formed by infected non-treated mice was also included in the experiment. All drugs were administered by intraperitoneal route for 14 days. […] Amphotericin B was not effective, since neither the dorso-plantar nor the lateral diameters differed statistically from the lesions of the control group (P>0.05).

Another series relates to cutaneous leishmaniosis. Nature of the series: Treatment of human cutaneous leishmaniosis, topical ointment. The conditions noted are these: oily ointment 0.15%, topical once a day, 21 days. The series is classed as in vivo. As for the experimental part: One hundred patients with parasitological diagnose of cutaneous leishmaniosis were treated. Patients were topically treated, once a day, for 21 days with an oily ointment containing 0.15% 2-bromo-5-(2-bromo-2-nitrovinyl)-furan as active ingredient and petrolatum as the main excipient.

The mark [9] stands for this setting: minimal parasiticidal concentration.

As for `O=[N+]([O-])C(Br)=Cc1ccc(Br)o1` [D, 2-bromo-5-(2-bromo-2-nitrovinyl)-furan], the IC50 in series [1] (Leishmania mexicana, mean inhibitory concentration, read-out: CI50 (the source's name)) is 0.25 µg/mL (≈ 0.842 µM); in series [2] (Leishmania braziliensis, mean inhibitory concentration, read-out: CI50 (the source's name)), 0.26 µg/mL (≈ 0.876 µM); in series [3] (Leishmania donovani, mean inhibitory concentration, read-out: CI50 (the source's name)), 0.35 µg/mL (≈ 1.18 µM); in series [4] (Trypanosoma cruzi, T. cruzi trypomastigotes grown in rat myoblast cell line, read-out: CI50 (the source's name)), 4.1 µg/mL and 13.9 µM. The CP100 in series [1] (minimal parasiticidal concentration abolishing motility of all parasites) is 1.53; in [2] (setting [9]), 0.49; in [3] (setting [9]), 0.86; in [4] (minimal concentration that immobilizes all parasites), 10.0 μg/mL and 33.7 μM. Moreover, the MTD at 14 days in series [5] (mouse, in vivo, ip, repeated intraperitoneal administration every 12 h during 14 days, read-out: MTD (every 12 h)) was 2 to 3 mg/kg; in series [5] (mouse, in vivo, ip, repeated intraperitoneal administration every 24 h during 14 days, read-out: MTD (every 24 h)), 5 mg/kg. Besides, in series [5] (maximal non-lethal dose calculated from dose-mortality curves, single i.p. injection), the LD0 is 15 mg/kg. Further, the LD50 in [5] (mouse, in vivo, ip, single intraperitoneal injection, female Balb/c mice, read-out: LD50) was 24 mg/kg. Besides, the “lesion evolution versus controls” value in the series on L. m. amazonensis [6] (during and after 14 days treatment, Amphotericin B 1 mg/Kg) is listed as “remained for two other weeks after treatment had finished”. Also, the lesion growth entry with L. m. amazonensis [6] (first week of treatment, i.p. daily, F 50 mg/Kg) is reported as “minimal lesion growth”. For the same molecule, the lesion size entry in the series on L. m. amazonensis [7] (first week of treatment, 2 mg/Kg i.p. every 12 h, P<0.001 vs control) is on record as “decreased during the first week of treatment”; in the series on L. m. amazonensis [7] (seven days after finishing treatment, P<0.05) it was “smaller than those of controls”; with L. m. amazonensis [8] (by the end of treatment (14 days)), “decrease of lesion size”. In addition, in the series on L. m. amazonensis [7] (i.p. every 12 h), the “activity compared with Amphotericin B” value was “higher activity than Amphotericin B”. Further, in the series on L. m. amazonensis [7] (i.p. every 12 h, D 2 mg/Kg, F 100 mg/Kg), the lesion growth rate result is on record as “significantly lower compared to controls”. The “dorso-plantar diameter versus control” value in the series on L. m. amazonensis [8] (by the end of treatment) is reported as “significantly different”. Further, the “dorso-plantar diameter of the infected foot” value in the series on L. m. amazonensis [8] (first week of treatment, P<0.05 vs control) is recorded as “decrease of the dorso-plantar diameter”. Besides, the “lateral diameter of the lesions” value in the series with L. m. amazonensis [8] (first week of treatment, P>0.05) is reported as “comparable to the diameter of control mice”. Further, the side effects entry in the series on cutaneous leishmaniosis was “did not evidence any side effect that impeded the continuation of therapy”. The “patients with total cure of the cutaneous lesions” value in the series on cutaneous leishmaniosis (one hundred patients) came out at 90%.
